Experiments:
[1] = system: human lung cancer strain NCI-H441; test: NCI-H441 cell proliferation inhibitory activity (CellTiter-Glo, 4 days); format: cell-based; details: 50% proliferation inhibitory concentration, four days, read-out: NCl-H441 IC50
Summary of the method: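 Step one: dispense the test compound in serial DMSO dilutions. Step three: add the reagent and measure […].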

[2] = target: HRAS wild-type protein (Homo sapiens, UniProt P01112); test: Binding to HRAS by surface plasmon resonance (SPR), KD and KD ratio to KRAS; details: ratio of KD with respect to HRAS wild-type protein to KD with respect to KRAS
Summary of the method: (§1)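 Running buffer contained 10 µM GDP and 10 mM MgCl2 to keep RAS in the GDP state, with 4% DMSO at pH 7.4. Compounds were flowed at 100 µL/min in 75 s steps of rising concentration over captured biotin-Avi RAS at 30°C. Sensorgrams were fitted 1:1 for KD.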

[3] = target: GDP-bound NRAS wild-type protein (Homo sapiens, UniProt P01111); test: Binding to NRAS by surface plasmon resonance (SPR), KD and KD ratio to KRAS; details: ratio of KD with respect to GDP-bound NRAS wild-type protein to KD with respect to KRAS
Summary of the method: as §1

[4] = target: GDP-bound KRAS wild-type protein (Homo sapiens, UniProt P01116); test: Binding to KRAS by surface plasmon resonance (SPR), dissociation constant KD; details: Single Cycle Kinetics, 1:1 binding model
Summary of the method: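 Affinity is measured by surface plasmon resonance at 30°C against captured, GDP-loaded RAS carrying a biotinylated Avi tag. Compounds are titrated by single-cycle kinetics, and KD comes from a 1:1 fit.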

Chain of GDP-bound KRAS wild-type protein (P01116 1-188 isoform P01116-2): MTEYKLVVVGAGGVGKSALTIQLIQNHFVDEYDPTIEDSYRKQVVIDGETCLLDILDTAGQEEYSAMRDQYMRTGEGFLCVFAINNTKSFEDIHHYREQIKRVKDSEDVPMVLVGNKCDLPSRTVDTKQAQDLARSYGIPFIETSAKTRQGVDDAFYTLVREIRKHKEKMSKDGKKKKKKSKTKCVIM
Chain of GDP-bound NRAS wild-type protein (P01111 whole entry): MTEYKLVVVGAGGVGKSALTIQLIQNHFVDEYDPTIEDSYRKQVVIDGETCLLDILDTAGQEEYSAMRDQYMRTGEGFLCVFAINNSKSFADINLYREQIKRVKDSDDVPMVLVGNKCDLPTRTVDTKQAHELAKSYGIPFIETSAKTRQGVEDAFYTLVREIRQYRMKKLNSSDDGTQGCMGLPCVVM
Chain of HRAS wild-type protein (P01112 whole entry): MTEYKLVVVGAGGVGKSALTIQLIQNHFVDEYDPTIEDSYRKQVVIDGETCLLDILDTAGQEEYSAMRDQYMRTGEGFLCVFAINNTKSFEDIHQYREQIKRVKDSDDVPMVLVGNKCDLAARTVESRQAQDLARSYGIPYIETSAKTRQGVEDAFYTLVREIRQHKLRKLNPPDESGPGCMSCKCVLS

SMILES | IC50 [1] [nM] | Kd [4] [nM] | HRAS /KRAS [2] | NRAS /KRAS [3]
CC[C@H](C)[C@@H]1NC(=O)[C@H](C)N(C)C(=O)C[C@@H](C(=O)N(C)C)N(C)C(=O)[C@H](C2CCCC2)N(C)C(=O)C2(CCC2)NC(=O)[C@@H]2CCCN2C(=O)[C@H](CCc2cc(F)c(C(F)(F)F)c(F)c2)NC(=O)CN(C)C(=O)[C@H](Cc2ccc(C(F)(F)F)cc2)N2CC/C=C\C[C@@H](C2=O)N(C)C(=O)CN(C)C1=O [PP1271] | 90.7 | 0.054 | A (a compound having 10 or more and less than 20 is denoted as A) | AA (a compound having 20 or more is denoted as AA)
CC[C@H](C)[C@@H]1NC(=O)[C@H](CC(C)C)N(C)C(=O)C[C@@H](C(=O)N(C)C)N(C)C(=O)[C@H](C2CCCC2)N(C)C(=O)C2(CCC2)NC(=O)[C@@H]2CCCN2C(=O)[C@H](CCc2cc(F)c(C(F)(F)F)c(F)c2)NC(=O)CN(C)C(=O)[C@H](Cc2ccc(C(F)(F)F)cc2)N2CC/C=C\C[C@@H](C2=O)N(C)C(=O)CN(C)C1=O [PP1272] | 24 | 0.11 | A (a compound having 10 or more and less than 20 is denoted as A) | A (a compound having 10 or more and less than 20 is denoted as A)
CCO[C@@H]1C[C@H]2C(=O)NC3(CCCC3)C(=O)N(C)[C@@H](C3CCCC3)C(=O)N(C)[C@H](C(=O)N(C)C)CC(=O)N(C)[C@@H](CC)C(=O)N[C@@H]([C@@H](C)CC)C(=O)N(C)CC(=O)N(C)[C@H]3C/C=C\CCN(C3=O)[C@@H](Cc3ccc(C(F)(F)F)cc3)C(=O)N(C)CC(=O)N[C@@H](CCc3cc(F)c(C(F)(F)F)c(F)c3)C(=O)N2C1 [PP1276] | 20.8 | 0.066 | B (a compound having 3 or more and less than 10 is denoted as B) | A (a compound having 10 or more and less than 20 is denoted as A)
CCO[C@@H]1C[C@H]2C(=O)NC3(CCC3)C(=O)N(C)[C@@H](C3CCCC3)C(=O)N(C)[C@H](C(=O)N3CCOCC3)CC(=O)N(C)[C@@H](CC(F)F)C(=O)N[C@@H]([C@@H](C)CC)C(=O)N(C)CC(=O)N(C)[C@H]3C/C=C\CCN(C3=O)[C@@H](Cc3ccc(C(F)(F)F)cc3)C(=O)N(C)CC(=O)N[C@@H](CCc3cc(F)c(C(F)(F)F)c(F)c3)C(=O)N2C1 [PP1285] | 24.6 | 0.15 | A (a compound having 10 or more and less than 20 is denoted as A) | AA (a compound having 20 or more is denoted as AA)
CCO[C@@H]1C[C@H]2C(=O)NC3(CCC3)C(=O)N(C)[C@@H](C3CCCC3)C(=O)N(C)[C@H](C(=O)N3CCCCC3)CC(=O)N(C)[C@@H](CC)C(=O)N[C@@H]([C@@H](C)CC)C(=O)N(C)CC(=O)N(C)[C@H]3C/C=C\CCN(C3=O)[C@@H](Cc3ccc(C(F)(F)F)cc3)C(=O)N(C)CC(=O)N[C@@H](CCc3cc(F)c(C(F)(F)F)c(F)c3)C(=O)N2C1 [PP1289] | 34.7 | 0.17 | A (a compound having 10 or more and less than 20 is denoted as A) | AA (a compound having 20 or more is denoted as AA)
CCO[C@@H]1C[C@H]2C(=O)NC3(CCC3)C(=O)N(C)[C@@H](C3CCCC3)C(=O)N(C)[C@H](C(=O)N3CCCC3)CC(=O)N(C)[C@@H](CC(C)C)C(=O)N[C@@H]([C@@H](C)CC)C(=O)N(C)CC(=O)N(C)[C@H]3C/C=C\CCN(C3=O)[C@@H](Cc3ccc(C(F)(F)F)cc3)C(=O)N(C)CC(=O)N[C@@H](CCc3cc(F)c(C(F)(F)F)c(F)c3)C(=O)N2C1 [PP1295] | 6.2 | 0.12 | A (a compound having 10 or more and less than 20 is denoted as A) | AA (a compound having 20 or more is denoted as AA)
CCO[C@@H]1C[C@H]2C(=O)NC3(CCC3)C(=O)N(C)[C@@H](C3CCCC3)C(=O)N(C)[C@H](C(=O)N3CCCC3)CC(=O)N(C)[C@@H](CC3CC3)C(=O)N[C@@H]([C@@H](C)CC)C(=O)N(C)CC(=O)N(C)[C@H]3C/C=C\CCN(C3=O)[C@@H](Cc3ccc(C(F)(F)F)cc3)C(=O)N(C)CC(=O)N[C@@H](CCc3cc(F)c(C(F)(F)F)c(F)c3)C(=O)N2C1 [PP1296] | 14.7 | 0.12 | A (a compound having 10 or more and less than 20 is denoted as A) | AA (a compound having 20 or more is denoted as AA)

Now from value to compound, other results behind:

IC50 [1] [nM] | Kd [4] [nM] | SMILES | HRAS /KRAS [2] | NRAS /KRAS [3]
16.5 | 0.12 | CC[C@H](C)[C@@H]1NC(=O)[C@H](CC)N(C)C(=O)C[C@@H](C(=O)N(C)C)N(C)C(=O)[C@H](C2CCCC2)N(C)C(=O)C2(CCCC2)NC(=O)[C@@H]2CCCN2C(=O)[C@H](CCc2cc(F)c(C(F)(F)F)c(F)c2)NC(=O)CN(C)C(=O)[C@H](Cc2ccc(C(F)(F)F)cc2)N2CC/C=C\C[C@@H](C2=O)N(C)C(=O)CN(C)C1=O [PP1273] | B (a compound having 3 or more and less than 10 is denoted as B) | A (a compound having 10 or more and less than 20 is denoted as A)
12.3 | 0.2 | CCO[C@@H]1C[C@H]2C(=O)NC3(CCC3)C(=O)N(C)[C@@H](C3CCCC3)C(=O)N(C)[C@H](C(=O)N3CCOCC3)CC(=O)N(C)[C@@H](CC(C)C)C(=O)N[C@@H]([C@@H](C)CC)C(=O)N(C)CC(=O)N(C)[C@H]3C/C=C\CCN(C3=O)[C@@H](Cc3ccc(C(F)(F)F)cc3)C(=O)N(C)CC(=O)N[C@@H](CCc3cc(F)c(C(F)(F)F)c(F)c3)C(=O)N2C1 [PP1282] | A (a compound having 10 or more and less than 20 is denoted as A) | A (a compound having 10 or more and less than 20 is denoted as A)
58.8 | 0.65 | CCO[C@@H]1C[C@H]2C(=O)NC3(CCC3)C(=O)N(C)[C@@H](C(CC)CC)C(=O)N(C)[C@H](C(=O)N3CCOCC3)CC(=O)N(C)[C@@H](CC)C(=O)N[C@@H]([C@@H](C)CC)C(=O)N(C)CC(=O)N(C)[C@H]3C/C=C\CCN(C3=O)[C@@H](Cc3ccc(C(F)(F)F)cc3)C(=O)N(C)CC(=O)N[C@@H](CCc3cc(F)c(C(F)(F)F)c(F)c3)C(=O)N2C1 [PP1286] | A (a compound having 10 or more and less than 20 is denoted as A) | AA (a compound having 20 or more is denoted as AA)
49.7 | 0.56 | CCO[C@@H]1C[C@H]2C(=O)NC3(CCC3)C(=O)N(C)[C@@H](C(CC)CC)C(=O)N(C)[C@H](C(=O)N3CCOCC3)CC(=O)N(C)[C@@H](CC(C)C)C(=O)N[C@@H]([C@@H](C)CC)C(=O)N(C)CC(=O)N(C)[C@H]3C/C=C\CCN(C3=O)[C@@H](Cc3ccc(C(F)(F)F)cc3)C(=O)N(C)CC(=O)N[C@@H](CCc3cc(F)c(C(F)(F)F)c(F)c3)C(=O)N2C1 [PP1287] | A (a compound having 10 or more and less than 20 is denoted as A) | AA (a compound having 20 or more is denoted as AA)
15.4 | 0.24 | CCO[C@@H]1C[C@H]2C(=O)NC3(CCC3)C(=O)N(C)[C@@H](C3CCCC3)C(=O)N(C)[C@H](C(=O)N3CCCCC3)CC(=O)N(C)[C@@H](CC(C)C)C(=O)N[C@@H]([C@@H](C)CC)C(=O)N(C)CC(=O)N(C)[C@H]3C/C=C\CCN(C3=O)[C@@H](Cc3ccc(C(F)(F)F)cc3)C(=O)N(C)CC(=O)N[C@@H](CCc3cc(F)c(C(F)(F)F)c(F)c3)C(=O)N2C1 [PP1290] | A (a compound having 10 or more and less than 20 is denoted as A) | AA (a compound having 20 or more is denoted as AA)
16.7 | 0.24 | CCO[C@@H]1C[C@H]2C(=O)NC3(CCC3)C(=O)N(C)[C@@H](C3CCCC3)C(=O)N(C)[C@H](C(=O)N3CCCCC3)CC(=O)N(C)[C@@H](CC3CC3)C(=O)N[C@@H]([C@@H](C)CC)C(=O)N(C)CC(=O)N(C)[C@H]3C/C=C\CCN(C3=O)[C@@H](Cc3ccc(C(F)(F)F)cc3)C(=O)N(C)CC(=O)N[C@@H](CCc3cc(F)c(C(F)(F)F)c(F)c3)C(=O)N2C1 [PP1291] | A (a compound having 10 or more and less than 20 is denoted as A) | A (a compound having 10 or more and less than 20 is denoted as A)
11.4 | 0.13 | CCO[C@@H]1C[C@H]2C(=O)NC3(CCC3)C(=O)N(C)[C@@H](C3CCCC3)C(=O)N(C)[C@H](C(=O)N3CCCC3)CC(=O)N(C)[C@@H](CC(F)F)C(=O)N[C@@H]([C@@H](C)CC)C(=O)N(C)CC(=O)N(C)[C@H]3C/C=C\CCN(C3=O)[C@@H](Cc3ccc(C(F)(F)F)cc3)C(=O)N(C)CC(=O)N[C@@H](CCc3cc(F)c(C(F)(F)F)c(F)c3)C(=O)N2C1 [PP1298] | A (a compound having 10 or more and less than 20 is denoted as A) | AA (a compound having 20 or more is denoted as AA)

Source: patent EP4603105A1, “PHARMACEUTICAL COMPOSITION CONTAINING CYCLIC COMPOUND HAVING SELECTIVE KRAS INHIBITORY EFFECT AGAINST HRAS AND NRAS” (CHUGAI SEIYAKU KABUSHIKI KAISHA, priority 2022, dated 2024)
